The values that follow come from patent US4593036A, “(-)-Trans-4-(4-fluorophenyl)-3-[(4-methoxyphenoxy)meth yl]-1-methylpiperidine useful as 5-HT potentiator” (priority 1984, dated 1986).

In one data set the test system is 5-HT uptake. As to the kind of experiment: Test 173: potentiation of 5-HTP (5-hydroxytryptophane) induced hypermotility in mice (inhibition of 5HT uptake, or 5HT potentiation, test). Format: in vivo, mice (female, NMRI strain). The following applies: for FG 8033 is better by: 5-HT Potentiation % / FG 8033 is better by: 5-HT Potentiation Factor: FG 8033 compared with the listed compound, mice s.c.; for ED50: Mus musculus, sc, read-out: Test 173 (dose increasing the activity to double the activity found with controls receiving 5-HTP alone; ED50), s.c., 5-HTP 150 mg/kg i.p., motility 45-75 min after 5-HTP, water-soluble salt. From the text:
I. POTENTIATION OF 5-HTP (5-HYDROXYTRYPTOPHANE) INDUCED HYPERMOTILITY IN MICE
This behavior is characterized by continuous jerky locomotion, head movements from side to side, abduction of the hind limbs, tremor, and lordosis.
Measurement of the motility after administration of test drugs to 5-HTP-pretreated mice is therefore used as a test for 5-HT-potentiation, which most probably proceeds through an inhibition of 5-HT uptake.
Female mice of the NMRI strain weighing 20-22 g are used. The controls receive 5-HTP 150 mg/kg (15 ml/kg) i.p. (i.p.=intraperitoneally) and thirty (30) minutes later physiological saline (20 ml/kg) s.c. (s.c.=subcutaneously). The motility is measured by an Animex™ motimeter 45-75 minutes after 5-HTP administration. The test animals received test substance s.c. (20 ml/kg) instead of physiological saline. Five groups of two (2) mice are used for control and per dose of each test drug. the test substance is dosed according to the dose scale 1, 1.6, 2.5, 4, 6.3, and 10 mg/kg etc.
The activity of the test animals is compared to the activity of controls. The best straight line is fitted through the points in a coordinate system (abscissa log dose, ordinate log activity). […] The activity of controls is investigated in thirty (30) groups of two (2) mice.

The subject of another data set is mice. As to the kind of experiment: in vivo. As to conditions: for FG 8033 is better by: T.I. % / FG 8033 is better by: T.I. Factor: FG 8033 compared with the listed compound, mice s.c. The protocol: (§1) (J. Buus Lassen, European Journal of Pharmacology 47, 351-358 (1978)). See also Squires in Acta Pharmacol. et Toxicol, 1972, 31 Suppl. 1,35 for a description of a further procedure for measurement of the same 5-HT uptake-inhibitory phenomenon.
(§2) II. ACUTE TOXICITY IN MICE
(§3) A variation of the procedure of J. Buus Lassen, et al. in European Journal of Pharmacology 32, 108-115 (1975) is employed. The test drug is administered s.c. in increasing doses to mice, four (4) animals at each dose level.
(§4) Results are expressed as LD50 = . . . mg/kg s.c.

Another data set in a line: in vivo. As to conditions: mouse, in vivo, sc. The method, then:
as §1, §2, §3, §4

Setting [1] is: versus (+) trans isomer FG 8032.
The mark [2] stands for this setting: versus (+), trans des-p-fluoro compound FG 4963.
Where [3] appears, read: versus (-), trans des-p-fluoro compound FG 4962.

On to `COc1ccc(OC[C@@H]2CN(C)CC[C@H]2c2ccc(F)cc2)cc1` (relative stereo) [FG 98-I], for which, in the data set on 5-HT uptake, the “FG 8033 is better by: 5-HT Potentiation %” value is listed as 260% and the “FG 8033 is better by: 5-HT Potentiation Factor” value worked out at 2.6. In addition, in the data set with 5-HT uptake (mice), the ED50 came to 1.3 mg/kg. Also, in the data set with mice, the “FG 8033 is better by: T.I. %” value was found to be 174% and the “FG 8033 is better by: T.I. Factor” value was 1.74.
As for `COc1ccc(OC[C@@H]2CN(C)CC[C@H]2c2ccccc2)cc1` (relative stereo) [FG 4932, reference compound], the ED50 in the data set on 5-HT uptake (mice) stood at 7.7 mg/kg.
For the molecule `COc1ccc(OC[C@@H]2CN(C)CC[C@H]2c2ccccc2)cc1` (single isomer, unassigned) [FG 4962, reference compound], in the data set with 5-HT uptake (mice), the ED50 stood at 3.8 mg/kg.
As to `COc1ccc(OC[C@H]2CN(C)CC[C@@H]2c2ccccc2)cc1` (single isomer, unassigned) [FG 4963, reference compound], in the data set on 5-HT uptake (mice), the ED50 is 2.8 mg/kg.
On to `COc1ccc(OC[C@H]2CNCC[C@@H]2c2ccccc2)cc1` (single isomer, unassigned) [FG 4996, reference compound], for which, in the data set on 5-HT uptake, the “FG 8033 is better by: 5-HT Potentiation %” value turned out to be 1800% and the “FG 8033 is better by: 5-HT Potentiation Factor” value is reported as 18. In addition, the ED50 with 5-HT uptake (mice) came to 9 mg/kg. Also, in the data set with mice, the “FG 8033 is better by: T.I. %” value came to 5714% and the “FG 8033 is better by: T.I. Factor” value is listed as 57.14.
Regarding `COc1ccc(OC[C@@H]2CNCC[C@H]2c2ccccc2)cc1` (single isomer, unassigned) [FG 7006, reference compound], in the data set with 5-HT uptake, the “FG 8033 is better by: 5-HT Potentiation %” value was 4000% and the “FG 8033 is better by: 5-HT Potentiation Factor” value is listed as 40. Further, the ED50 in the data set on 5-HT uptake (mice) came out at 20 mg/kg. The selectivity ratio in the data set “in vivo” was determined as 18. Further, in the data set with mice, the “FG 8033 is better by: T.I. %” value is on record as 4444% and the “FG 8033 is better by: T.I. Factor” value is listed as 44.44. Also, in the data set with mice (mice, s.c., lethality at 24 hours, water-soluble salt), the “Test 001 acute toxicity LD50” value is 350 mg/kg.
Regarding `CN1CC[C@@H](c2ccc(F)cc2)[C@H](COc2ccc3c(c2)OCO3)C1` (single isomer, unassigned) [FG 7043, reference compound], the ED50 with 5-HT uptake (mice) was found to be 4 mg/kg.
For the molecule `COc1ccc(OC[C@@H]2CNCC[C@H]2c2ccc(F)cc2)cc1` (single isomer, unassigned) [FG 7080, (-)-trans-4-(4-fluorophenyl)-3-[(4-methoxyphenoxy)-methyl]-piperidine], the ED50 in the data set with 5-HT uptake (mice) was 1 mg/kg.
As to `COc1ccc(OC[C@@H]2CN(C)CC[C@H]2c2ccc(F)cc2)cc1.Cl` (single isomer, unassigned) [FG 8032, (+)-trans-4-(4-fluorophenyl)-3-[(4-methoxyphenoxy)methyl]-1-methylpiperidine hydrochloride], in the data set with 5-HT uptake (mice), the ED50 turned out to be 23 mg/kg.
`COc1ccc(OC[C@@H]2CN(C)CC[C@H]2c2ccc(F)cc2)cc1` (single isomer, unassigned) [FG 8033, (-)-trans-4-(4-fluorophenyl)-3-[(4-methoxyphenoxy)-methyl]-1-methyl-piperidine]: in the data set on 5-HT uptake (mice), the ED50 was determined as 0.5 mg/kg; the “degree of activity in test for potentiation of 5-hydroxytryptophane-induced hypermotility (in words)” value was “remarkably and unpredictably superior in its 5-HT potentiation to the most structurally closely-related compounds evaluated”. Further, in the data set with 5-HT uptake (setting [1]), the “5-HT potentiation activity relative to FG 8032” value was found to be 46 times and the “5-HT potentiation activity relative to FG 8032, percent” value came to 4600%. In the data set on 5-HT uptake (setting [2]), the “superiority as to 5-HT potentiation over FG 4963, factor” value came to 5.6 and the “superiority as to 5-HT potentiation over FG 4963, percent” value was 560%. Further, in the data set on 5-HT uptake (setting [3]), the “5-HT potentiation activity relative to FG 4962” value came out at 7.6 times and the “5-HT potentiation activity relative to FG 4962, percent” value worked out at 760%. The “Therapeutic Index (in words)” value in the data set with mice (calculated as LD50/ED50) is “even more remarkably and unpredictably superior to those most structurally closely-related compounds when considering its Therapeutic Index”. In the data set with mice (setting [1]), the “Therapeutic Index relative to FG 8032” value is given as “more than 47 times” and the “Therapeutic Index relative to FG 8032, percent” value is on record as above 4700%. In addition, in the data set with mice (setting [2]), the “superiority as to Therapeutic Index over FG 4963, factor” value is reported as “greater than 5.97 times” and the “superiority as to Therapeutic Index over FG 4963, percent” value is on record as above 597%. In addition, in the data set with mice (setting [3]), the “Therapeutic Index relative to FG 4962” value was “more than 15 times” and the “Therapeutic Index relative to FG 4962, percent” value is recorded as above 1500%.
Turning to `CC(=O)O.COc1ccc(OC[C@@H]2CNCC[C@H]2c2ccc(F)cc2)cc1` (single isomer, unassigned) [FG 8035, (+)-trans-4-(4-fluorophenyl)-3-((4-methoxyphenoxy)methyl)-piperidine acetate], in the data set with 5-HT uptake, the “FG 8033 is better by: 5-HT Potentiation %” value stood at 4400% and the “FG 8033 is better by: 5-HT Potentiation Factor” value stood at 44. The ED50 in the data set with 5-HT uptake (mice) amounted to 22 mg/kg. In the data set with mice, the “FG 8033 is better by: T.I. %” value worked out at 3333% and the “FG 8033 is better by: T.I. Factor” value is recorded as 33.33.
